Data taken from patent publication US9844217B2, “Allomone repulsive and kairomone attractive compositions for controlling arachnids” (Fideline, priority 2002, dated 2017).

System: chicken mites
Assay: Tests for resistance to other miticides
Parameters: species or system Dermanyssus gallinae
Conditions: for % deaths 1× dose: 1× the dose on the product's instructions; for % deaths 4× dose: 4× the commercial dose; for % deaths 8× dose: 8× the commercial dose; for % deaths 16× dose: 16× the commercial dose; for % deaths 32× Dose: 32× the commercial dose
From the text: The doses were chosen at 1 to 32 times the dose commercially given on the products' instructions.

Row | Structure (SMILES) | % deaths 1× dose [%] | % deaths 1× dose (listed as Amitraze) | % deaths 4× dose [%] | % deaths 8× dose [%] | % deaths 16× dose [%] | % deaths 32× Dose [%] | % deaths 4× dose (listed as Aphamethrine) [%]
1 | Cc1ccc(/N=C/N(C)/C=N/c2ccc(C)cc2C)c(C)c1 [Amitraz] | 97.4 | most efficient miticide | 98.5 | 100.00 | 100.00 | 100.0 | 
2 | CC1(C)C(C=C(Cl)Cl)C1C(=O)OC(C#N)c1cccc(Oc2ccccc2)c1 (stereo not drawn) [Aplhamethrine] | 48.1 |  | 85.2 | 97.0 | 98.9 | 99.6 | 85
3 | COP(=O)(OC)SCn1c(=O)oc2cc(Cl)cnc21 [Azamethiphos] | 30.0 |  | 43.3 | 54.8 | 100.00 | 97.8 | 
4 | CNC(=O)Oc1cccc2ccccc12 [Carbaryl] | 19.3 |  | 37.8 | 64.4 | 91.1 | 97.8 | 
5 | COP(=O)(OC)C(O)C(Cl)(Cl)Cl (stereo not drawn) [Trichlorfon] | 20.4 |  | 39.7 | 34.4 | 80.8 | 94.4 | 
